Assay results: ChEMBL document CHEMBL5528066, “Discovery of Novel N-(Anthracen-9-ylmethyl) Benzamide Derivatives as ZNF207 Inhibitors Promising in Treating Glioma” (J Med Chem, 2024)
The source made the active and inactive calls. No cut-off for these calls is given here.

Assays:
NCI-H460 = assay: Antiproliferative activity against human NCI-H460 cells assessed as inhibition of cell growth incubated for 72 hrs by CCK-8 assay; assay type: functional, cell-based; conditions: NCI-H460, 72 h
[1] = Drug concentration in female Sprague-Dawley rat stomach at 45 mg/kg, po measured after 8 hrs by LC-MS/MS analysis; assay type: ADME, organism-based; conditions: read-out: Ct
H4 [2] = assay: Inhibition of sphere formation in human H4 cells at 1 uM measured after 10 days in well containing 10000 cells by microscopic analysis; assay type: functional, cell-based; conditions: time 10.0 day
H4 [3] = assay: Inhibition of sphere formation in human H4 cells at 2 uM measured after 10 days in well containing 1 cells by microscopic analysis; assay type: functional, cell-based; conditions: time 10.0 day
U-251 = assay: Inhibition of sphere formation in human U-251MG cells at 2 uM measured after 10 days in well containing 1 cells by microscopic analysis; assay type: functional, cell-based; conditions: time 10.0 day

IC50 (NCI-H460): 15.6 µM
concentration at 8 h [1]: 4370 ng/g
Structure (SMILES): N#CC1(C(=O)NCCC2CCN(Cc3ccccc3)CC2)CC2(Br)c3ccccc3C1c1ccccc12 (racemic)
inhibition (H4 [2]): inactive
inhibition (H4 [3]): Active
inhibition (U-251): Active
